Assay results taken from patent publication US20030228365A1, “Pharmaceutical formulation” (priority 2002, published 2003).
Where a SMILES comes first, the peptide text is derived from it.

Procedure: A sample of the compound of formula (Ia) in PLG gel was dissolved in aqueous acetonitrile and further diluted with water. The precipitated polymer was subsequently removed by filtration through a membrane filter. The concentration of the compound of formula (Ia) in the filtrate was determined by HPLC.

Compound: CCC[C@H](NC(=O)[C@@H](NC(=O)[C@H](NC(=O)[C@@H](NC(=O)CNC(=O)CN(C)C(C)=O)C(C)C)[C@H](C)CC)[C@@H](C)O)C(=O)N[C@H](C(=O)N[C@@H](CCCN=C(N)N)C(=O)N1CCC[C@H]1C(=O)NCC)[C@@H](C)CC [compound of formula (Ia), N-Ac-Sar-Gly-Val-DIle-Thr-Nva-Ile-Arg-ProNHCH2CH3] (HELM PEPTIDE1{[ac].[Sar].G.V.[dI].T.[Nva].I.R.P.[CCN[*:1]]}$$$$V2.0)
- degradation found by HPLC: no extensive degradation
